In ChEMBL document CHEMBL1132914, “4-[(8-Alkyl-8-azabicyclo[3.2.1]octyl-3-yl)-3-arylanilino]-N,N-diethylbenzamides: high affinity, selective ligands for the delta opioid receptor illustrate factors important to antagonist activity” (Bioorg Med Chem Lett, 2000):

What was measured:
[1] = species on record: Cavia porcellus; test: Percent stimulation of [35S]GTP-gamma-S, binding by the compound (10 uM) in guinea pig caudate membranes for unblocked condition; assay type: functional
[2] = species on record: Cavia porcellus; test: Percent stimulation of [35S]GTP-gamma-S, binding by the compound in guinea pig caudate membranes for unblocked condition; assay type: functional, organism-based

Compound | Stimulation [1] | Stimulation [2]
C=CCN1[C@@H]2CC[C@H]1C[C@@H](N(c1ccc(C(=O)N(CC)CC)cc1)c1cccc(OC)c1)C2 | 46% | 
C=CCN1[C@@H]2CC[C@H]1C[C@@H](N(c1ccc(C(=O)N(CC)CC)cc1)c1cccc(O)c1)C2 | 79% | 
CCN(CC)C(=O)c1ccc(N(c2cccc(OC)c2)[C@H]2C[C@H]3CC[C@@H](C2)N3CC=C(C)C)cc1 | 29% | 
C/C=C\CN1C2CCC1CC(N(c1ccc(C(=O)N(CC)CC)cc1)c1cccc(OC)c1)C2 (stereo not given) | 37% | 
C=CCN1C[C@H](C)N([C@H](c2ccc(C(=O)N(CC)CC)cc2)c2cccc(OC)c2)C[C@H]1C |  | 102%
